From PubChem BioAssay (NCI)
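Five concentrations, 48 hours, 96-well plates. At the GI50, growth is halved. The concentration for full growth arrest is given as TGI.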

What was measured:
Assay in all cases: inhibition of tumour cell growth, NCI panel, 48 h
IGROV1 ovarian = system: IGROV1 ovarian
SW-620 colon = system: SW-620 colon
SNB-19 CNS = system: SNB-19 CNS
ACHN renal = system: ACHN renal
SK-MEL-2 melanoma = system: SK-MEL-2 melanoma
UACC-257 melanoma = system: UACC-257 melanoma
SK-MEL-5 melanoma = system: SK-MEL-5 melanoma
A498 renal = system: A498 renal
OVCAR-4 ovarian = system: OVCAR-4 ovarian
HCT-116 colon = system: HCT-116 colon

| SMILES | TGI (IGROV1 ovarian) | TGI (SW-620 colon) | TGI (SNB-19 CNS) | TGI (ACHN renal) | TGI (SK-MEL-2 melanoma) | TGI (UACC-257 melanoma) | TGI (SK-MEL-5 melanoma) | TGI (A498 renal) | TGI (OVCAR-4 ovarian) | TGI (HCT-116 colon) | GI50 (IGROV1 ovarian) | GI50 (SW-620 colon) | GI50 (SNB-19 CNS) | GI50 (ACHN renal) | GI50 (SK-MEL-2 melanoma) | GI50 (UACC-257 melanoma) | GI50 (SK-MEL-5 melanoma) | GI50 (A498 renal) | GI50 (OVCAR-4 ovarian) | GI50 (HCT-116 colon) |
| --- | --- | --- | --- | --- | --- | --- | --- | --- | --- | --- | --- | --- | --- | --- | --- | --- | --- | --- | --- | --- |
| COC(C(=O)NCCCCNC(=O)C(OC)c1ccccc1)c1ccccc1 (centres undefined) | > 100 µM | > 100 µM | > 100 µM | > 100 µM | > 100 µM | > 100 µM | > 100 µM | > 100 µM | > 100 µM | > 100 µM |  |  |  |  |  |  |  |  |  |  |
| COc1ccc(OC)c2c1[nH]c(=O)c1c3ncccc3cn21 | > 100 µM | 5.38 µM | > 100 µM | > 100 µM | > 100 µM | > 100 µM | > 100 µM | > 100 µM | 17.2 µM | 13.2 µM | 3.21 µM | 1.55 µM | 5.6 µM | 2030 nM | 7170 nM | 5050 nM | 3790 nM | 3950 nM | 3.56 µM | 1850 nM |
| CC(C)(C)C(=O)OCC1CCC(n2cnc3c(=O)[nH]c(N)nc32)O1 (centres undefined) | > 100 µM | > 100 µM | > 100 µM | > 100 µM | > 100 µM | > 100 µM | > 100 µM | > 100 µM | > 100 µM | > 100 µM |  |  |  |  |  |  |  |  |  |  |
| O=C(O)C(Cl)(c1ccccc1)c1ccccc1 | > 100 µM | > 100 µM | > 100 µM | > 100 µM | > 100 µM | > 100 µM | > 100 µM | > 100 µM | > 100 µM | > 100 µM |  |  |  |  |  |  |  |  |  |  |
| O=c1[nH]c2cc(Cl)ccc2nc1/C(=N\O)C(O)c1ccc([N+](=O)[O-])cc1 (centres undefined) | > 100 µM | > 100 µM | > 100 µM | > 100 µM | > 100 µM | > 100 µM | > 100 µM | > 100 µM | > 100 µM | > 100 µM |  |  |  |  |  |  |  |  |  |  |
| CNC(=O)Cc1nc(-c2cccc(NS(=O)(=O)c3c(F)cccc3F)c2F)c(-c2ccnc(Nc3ccccc3)n2)s1 | > 19.6 µM | > 50 µM | > 50 µM | > 50 µM | > 46 µM |  | > 19.8 µM | 18.5 µM | > 50 µM | > 29.2 µM | 0.462 µM | 9.54 µM | 14.3 µM | 889 nM | 419 nM | 14.2 nM | 86.6 nM | 2600 nM | > 33.8 µM | 1050 nM |
| COc1cc(Nc2nc3ccccc3cc2C(=O)Nc2ccc(F)c(F)c2)cc(OC)c1OC | > 100 µM | > 100 µM | > 100 µM | 7.59 µM | 5.98 µM | 6.28 µM | 3.11 µM | 8.25 µM | 8.56 µM | 9.08 µM | 4.08 µM | 3.53 µM | 3.55 µM | 2510 nM | 2100 nM | 2600 nM | 1620 nM | 2390 nM | 2.8 µM | 2840 nM |
| CN/N=C(\C)C(CN(C)C)C(c1ccccc1)c1c(O)c2ccccc2oc1=O (centres undefined) | > 100 µM | > 100 µM | > 100 µM | > 100 µM | > 100 µM | > 100 µM | > 100 µM | > 100 µM | > 100 µM | > 100 µM |  |  |  |  |  |  |  |  |  |  |
| Cc1cc(N(CCC#N)S(C)(=O)=O)ccc1C=Nc1ccc(C(=O)NN2C(=O)/C(=C/c3ccc(N(CCC#N)CCC#N)cc3C)N=C2c2cc([N+](=O)[O-])ccc2Cl)cc1 | > 100 µM | > 100 µM | > 100 µM | > 100 µM | > 100 µM | > 100 µM | > 100 µM | > 100 µM | > 100 µM | > 100 µM |  |  |  |  |  |  |  |  |  |  |
